Experimental data from patent US20190376971A1, “Compositions and Methods for the Assessment of Drug Target Occupancy for Bruton's Tyrosine Kinase” (Acerta Pharma B.V., priority 2017, published 2019).

Molecular target: T1, BTK (Canis lupus familiaris, UniProt A0A8I3P3Z9)
T1 construct: PBMCs are isolated from the blood of dogs by Ficoll Paque procedure; from tissue; host or cells: CD21+ B cells purified from PBMCs of dog blood (dogs with spontaneous lymphoma, dosed orally)
Assay: BTK target occupancy in canine peripheral CD21+ B cells after oral dosing
Format: in vivo, dog
Settings: day 7 prior to repeat dose, 1 day after preceding dose; 2.5 mg/kg once daily, peroral
Method: The following method may be used for the ELISA BTK target occupancy assay. Other variations of this assay are known to those of skill in the art and may also be used. • 1. Coat a 96-well plate (Optiplate, Perkin Elmer, catalog no. 6005290) with 125 ng/well anti-BTK (BD Biosciences catalog no. 611117) in 100 μL PBS, overnight at 4° C. • 2. Wash 2×200 μL/well PBS-Tween 0.05% (PBST). • 3. Block with 245 μL/well PBST+3% bovine serum albumin (BSA), for 2 to 3 hours at room temperature while shaking. • 4. During blocking, incubate samples with acalabrutinib and probe in Eppendorf tubes: • a. Centrifuge cells 5 minutes at 5000 rpm and 4° C. in Eppendorf centrifuge. • b. Remove supernatant, dilute BTK protein or resuspend cell pellet in cold (2-8° C.) lysis buffer (see below). For amount of cells/μL, see detailed protocols for Ramos (Example 6.2), canine B cells (Example 7.2) and human PBMCs (Example 8.2). • c. Incubate on ice for 30 minutes while shaking. Vortex every 10 minutes. • d. Centrifuge for 10 minutes at 14000 rpm and 4° C. in Eppendorf centrifuge. • e. Transfer supernatant to new tube. • f. […] Wash wells 2×245 μL/well PBST. • 6. Add (in duplicate) 100 μL of each sample (with and without Formula (3)) to the wells. • 7. Incubate for 2 hours at room temperature while shaking. • 8. Wash 4×PBST, 200 μL/well. • 9. […]

T1 sequence (A0A8I3P3Z9 1-664): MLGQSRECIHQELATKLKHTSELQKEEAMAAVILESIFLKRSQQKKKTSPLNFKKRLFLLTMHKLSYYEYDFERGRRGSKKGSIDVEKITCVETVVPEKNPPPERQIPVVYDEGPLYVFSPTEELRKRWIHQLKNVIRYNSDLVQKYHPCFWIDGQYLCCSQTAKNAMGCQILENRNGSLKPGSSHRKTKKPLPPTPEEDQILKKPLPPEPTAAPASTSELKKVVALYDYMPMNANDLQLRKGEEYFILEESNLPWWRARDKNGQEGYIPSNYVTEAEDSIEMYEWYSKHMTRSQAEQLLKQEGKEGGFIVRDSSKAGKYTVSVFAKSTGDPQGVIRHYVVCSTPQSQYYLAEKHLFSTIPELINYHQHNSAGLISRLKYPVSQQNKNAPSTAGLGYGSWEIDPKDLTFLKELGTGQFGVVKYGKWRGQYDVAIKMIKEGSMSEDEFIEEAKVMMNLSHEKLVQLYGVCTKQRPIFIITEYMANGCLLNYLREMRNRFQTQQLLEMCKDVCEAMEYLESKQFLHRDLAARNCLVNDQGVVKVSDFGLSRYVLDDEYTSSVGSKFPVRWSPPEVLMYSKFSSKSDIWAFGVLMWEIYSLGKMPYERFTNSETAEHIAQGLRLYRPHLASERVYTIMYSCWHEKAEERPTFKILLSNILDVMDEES

CC#CC(=O)N1CCC[C@H]1c1nc(-c2ccc(C(=O)Nc3ccccn3)cc2)c2c(N)nccn12 [acalabrutinib]
BTK still occupied, percentage of the predose sample: 83%
